SMILES strings stand for the structures.

In the experiment the target is T1, hCRTH2 (Homo sapiens, UniProt Q9Y5Y4).
T1 construct: expressed in transfected cells; host or cells: HEK (human embryonic kidney) cells expressing hCRTH2; membrane preparation
T1 sequence (Q9Y5Y4 1-395): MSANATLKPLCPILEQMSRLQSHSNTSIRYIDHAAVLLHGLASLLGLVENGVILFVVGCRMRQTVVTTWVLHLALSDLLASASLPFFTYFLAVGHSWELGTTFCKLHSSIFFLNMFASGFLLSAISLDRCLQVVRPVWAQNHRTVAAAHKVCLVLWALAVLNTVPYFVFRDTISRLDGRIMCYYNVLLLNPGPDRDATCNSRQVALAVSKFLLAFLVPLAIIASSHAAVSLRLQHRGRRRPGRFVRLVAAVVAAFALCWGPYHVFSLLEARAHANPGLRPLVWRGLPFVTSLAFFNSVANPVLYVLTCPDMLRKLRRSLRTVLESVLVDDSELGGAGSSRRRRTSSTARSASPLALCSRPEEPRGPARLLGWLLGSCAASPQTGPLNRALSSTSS
The experiment can be described thus: Radioligand binding assay ([3H]PGD2 competition, HEK-hCRTH2 membranes). The method, boiled down: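 HEK-hCRTH2 membranes, 8-20 μg; [3H]PGD2 3.0 nM; 50 mM Tris-HCl pH 7.4/1 mM EDTA/2 mM MnCl2; DMSO 1%; 60 min RT; NSB 10 μM PGD2; filtration, scintillation counting.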

[1] abbreviates: [3H]PGD2 binding, rated A-E (Table A).

A word on the Ki: it is a dissociation constant, usually derived from enzyme kinetics or from competition with a known ligand. The molecule `CC(CCCc1nc2cc(C(=O)NCc3cccc(Cl)c3)ccc2nc1-c1ccc(C(F)(F)F)cc1)C(=O)O` (stereo not drawn) [18D, 7-[[[(3-chlorophenyl)methyl]amino]carbonyl]-alpha-nethyl-3-[4-(trifluoromethyl)phenyl]-2-quinoxalinepentanoic acid] gave a Ki under setting [1] of 2.1 to 20 nM.
Molecule `O=C(O)CCCCc1nc2cc(C(=O)N[C@@H]3CCCc4ncccc43)ccc2nc1-c1ccccc1` [compound 503, (R)-5-(3-phenyl-7-((5,6,7,8-tetrahydroquinolin-5-yl)carbamoyl)quinoxalin-2-yl)pentanoic acid] had a Ki ([3H]PGD2 competition, Table B) of 20.1 to 200 nM.
Consider `O=C(O)CCCCc1nc2cc(C(=O)N[C@@H]3CCSc4ccccc43)ccc2nc1-c1ccc(Cl)cc1` [compound 569, (R)-5-(3-(4-chlorophenyl)-7-(thiochroman-4-ylcarbamoyl)quinoxalin-2-yl)pentanoic acid], for which, for the setting “[3H]PGD2 competition, Table B”, the Ki was 0.1 to 2 nM.
Same read-out and setting: the result for `CC(c1ccoc1)N(C)C(=O)c1ccc2nc(-c3ccc(Cl)cc3)c(CCCCC(=O)O)nc2c1` (stereo not shown) [compound 649, 5-(3-(4-chlorophenyl)-7-((1-(furan-3-yl)ethyl)(methyl)carbamoyl)quinoxalin-2-yl) pentanoic acid] reads 20.1 to 200 nM; that for `O=C(O)CCCCc1nc2cc(C(=O)N3C[C@H]4C[C@@H]3CN4C(=O)OCc3ccccc3)ccc2nc1-c1ccc(Cl)cc1` [compound 699, 5-(7-((1R,4R)-5-((benzyloxy)carbonyl)-2,5-diazabicyclo[2.2.1]heptane-2-carbonyl)-3-(4-chlorophenyl)quinoxalin-2-yl)pentanoic acid], 2.1 to 20 nM.
Regarding `O=C(O)CCCCc1nc2cc(C(=O)N3CC[C@@H](c4ccccc4)C3)c(F)cc2nc1-c1ccc(F)cc1` [24H, 6-fluoro-3-(4-fluorophenyl)-7-[(3(S)-phenyl-1-pyrrolidinyl)carbonyl]-2-quinoxalinepentanoic acid], under setting [1], the Ki lay in the range of 2.1 to 20 nM.
On to `O=C(O)CCCCc1nc2cc(C(=O)N3CCC(n4ncc5ccccc54)CC3)ccc2nc1-c1ccc(Cl)cc1` [compound 348, 5-(7-(4-(1H-indazol-1-yl)piperidine-1-carbonyl)-3-(4-chlorophenyl)quinoxalin-2-yl)pentanoic acid], for which, for the setting “[3H]PGD2 competition, Table B”, the inhibition constant (Ki) lay within 2.1 to 20 nM.
Under setting [1], `C[C@@H](NC(=O)c1cnc2nc(-c3ccccc3)c(CCCCC(=O)O)nc2c1)c1ccccc1` [14F, 5-(3-phenyl-7-{[(1R)-1-phenylethyl]carbamoyl}pyrido[2,3-b]pyrazin-2-yl)pentanoic acid] returned a Ki of 20.1 to 200 nM.
As for `CC(CCc1nc2cc(C(=O)N3CC[C@@H](c4ccccc4)C3)ccc2nc1-c1ccc(C(F)(F)F)cc1)CC(=O)O` (stereo partly drawn) [17V, beta-methyl-7-[(3(S)-phenyl-1-pyrrolidinyl)carbonyl]-3-[4-(trifluoromethyl)phenyl]-2-quinoxalinepentanoic acid], the Ki under setting [1] lay within 0.1 to 2 nM.
`O=C(O)CCCCc1nc2cc(C(=O)N[C@@H]3CCS(=O)(=O)c4ccccc43)ccc2nc1-c1ccccc1` [compound 715, (R)-5-(7-((1,1-dioxidothiochroman-4-yl)carbamoyl)-3-phenylquinoxalin-2-yl)pentanoic acid] showed a Ki ([3H]PGD2 competition, Table B) of 2.1 to 20 nM.
Molecule `C[C@H](NC(=O)c1ccc2nc(-c3ccc(F)cc3)c(CCCCC(=O)O)nc2c1)c1ccccc1` [compound 133, 3-(4-fluorophenyl)-7-[[(1(S)-phenylethyl)amino]carbonyl]-2-quinoxalinepentanoic acid] came in with an inhibitory constant (Ki) under setting [1] of 2.1 to 20 nM.
Still for that read-out and setting: in the case of `C[C@@H](c1ccc(F)cc1)N(C)C(=O)c1ccc2nc(-c3ccc(F)cc3)c(CCCCC(=O)O)nc2c1` [compound 241, 3-(4-fluorophenyl)-7-[[[1(S)-(4-fluorophenyl)ethyl]methylamino]carbonyl]-2-quinoxalinepentanoic acid] it was 2.1 to 20 nM; in that of `CC(CCCc1nc2cc(C(=O)N(C)Cc3ccccc3)ccc2nc1-c1ccc(F)cc1)C(=O)O` (stereo not drawn) [compound 212, 3-(4-fluorophenyl)-alpha-methyl-7-[[methyl(phenylmethyl)amino]carbonyl]-2-quinoxalinepentanoic acid], 2.1 to 20 nM; in that of `O=C(O)CCCCc1nc2cc(C(=O)N[C@H]3CCCc4cc(Cl)ccc43)ccc2nc1-c1ccc(F)cc1` [compound 222, 7-[[(6-chloro-1,2,3,4-tetrahydro-1(S)-naphthalenyl)amino]carbonyl]-3-(4-fluorophenyl)-2-quinoxalinepentanoic acid], 2.1 to 20 nM.
Molecule `C[C@@H](NC(=O)c1ccc2nc(-c3ccccc3)c(CCCCC(=O)O)nc2c1)c1ccc(F)cn1` [compound 473, (R)-5-(7-((1-(5-fluoropyridin-2-yl)ethyl)carbamoyl)-3-phenylquinoxalin-2-yl)pentanoic acid] displayed a Ki ([3H]PGD2 competition, Table B) of 2.1 to 20 nM.
For the molecule `O=C(O)CCCCc1nc2cc(C(=O)N3CC(n4ccnc4)C3)ccc2nc1-c1ccc(Cl)cc1` [compound 325, 5-(7-(3-(1H-imidazol-1-yl)azetidine-1-carbonyl)-3-(4-chlorophenyl)quinoxalin-2-yl)pentanoic acid], the Ki ([3H]PGD2 competition, Table B) was 20.1 to 200 nM.
`Cn1cc(-c2nc3ccc(C(=O)N4CCC(c5ccccc5)CC4)cc3nc2CCCCC(=O)O)cn1` [26T, 3-(1-methyl-1H-pyrazol-4-yl)-7-[(4-phenyl-1-piperidinyl)carbonyl]-2-quinoxalinepentanoic acid] registered a Ki under setting [1] of 2.1 to 20 nM.
Consider `N#Cc1ccc(C2CN(C(=O)c3ccc4nc(-c5ccc(Cl)cc5)c(CCCCC(=O)O)nc4c3)C2)cc1` [compound 421, 5-(3-(4-chlorophenyl)-7-(3-(4-cyanophenyl)azetidine-l-carbonyl)quinoxalin-2-yl)pentanoic acid], for which the Ki ([3H]PGD2 competition, Table B) lay within 0.1 to 2 nM.
Turning to `C[C@@H](NC(=O)c1ccc2nc(-c3ccc(Cl)cc3)c(CCCCC(=O)O)nc2c1)c1ccccc1` [16AL, 3-(4-chlorophenyl)-7-[[(1(R)-phenylethyl)amino]carbonyl]-2-quinoxalinepentanoic acid], the Ki under setting [1] was in the range of 0.1 to 2 nM.
The molecule `CS(=O)(=O)N1CCC(NC(=O)c2ccc3nc(-c4ccccc4)c(CCCCC(=O)O)nc3c2)c2ccccc21` (stereo not shown) [compound 575, 5-(7-((1-(methylsulfonyl)-1,2,3,4-tetrahydroquinolin-4-yl)carbamoyl)-3-phenylquinoxalin-2-yl)pentanoic acid] gave a Ki ([3H]PGD2 competition, Table B) of 0.1 to 2 nM.
`O=C(O)CCCCc1nc2cc(C(=O)N[C@@H]3CC(=O)Nc4ccccc43)ccc2nc1-c1ccccc1` [compound 711, (R)-5-(7-((2-oxo-1,2,3,4-tetrahydroquinolin-4-yl)carbamoyl)-3-phenylquinoxalin-2-yl)pentanoic acid] returned an inhibition constant (Ki) ([3H]PGD2 competition, Table B) of 2.1 to 20 nM.
Under setting [1], `C[C@@H](c1ccc(Cl)cc1)N(C)C(=O)c1ccc2nc(-c3ccc(F)cc3)c(CCCCC(=O)O)nc2c1` [compound 243, 7-[[[1(S)-(4-chlorophenyl)ethyl]methylamino]carbonyl]-3-(4-fluorophenyl)-2-quinoxalinepentanoic acid] gave a Ki of 2.1 to 20 nM.
Turning to `O=C(O)CCCCc1nc2cc(C(=O)N[C@@H](c3ccc(Cl)cc3)C(F)(F)F)ccc2nc1-c1ccc(F)cc1` [compound 227, 7-[[[1(S)-(4-chlorophenyl)-2,2,2-trifluoroethyl]amino]carbonyl]-3-(4-fluorophenyl)-2-quinoxalinepentanoic acid], the Ki under setting [1] lay in the range of 0.1 to 2 nM.
The same measure, in the same setting: the result for `C[C@H](NC(=O)c1cnc2nc(-c3ccccc3)c(CCCCC(=O)O)nc2c1)c1ccccc1` [14C, 5-(3-phenyl-7-{[(1S)-1-phenylethyl]carbamoyl}pyrido[2,3-b]pyrazin-2-yl)pentanoic acid] reads 20.1 to 200 nM.
The molecule `Cc1ccc(N2CCN(C(=O)c3ccc4nc(-c5ccc(Cl)cc5)c(CCCCC(=O)O)nc4c3)CC2)cc1C` [compound 621, 5-(3-(4-chlorophenyl)-7-(4-(3,4-dimethylphenyl)piperazine-1-carbonyl)quinoxalin-2-yl)pentanoic acid] showed a Ki ([3H]PGD2 competition, Table B) of 0.1 to 2 nM.
For `O=C(O)CCCCc1nc2cc(C(=O)N[C@H]3CC(=O)Nc4ccc(F)cc43)ccc2nc1-c1ccccc1` [compound 712, (S)-5-(7-((6-fluoro-2-oxo-1,2,3,4-tetrahydroquinolin-4-yl)carbamoyl)-3-phenylquinoxalin-2-yl)pentanoic acid], under “[3H]PGD2 competition, Table B”, the Ki lay within 20.1 to 200 nM.
Take `O=C(O)CCCCc1nc2cc(C(=O)N[C@@H]3CCOc4cc(F)ccc43)ccc2nc1-c1ccc(Cl)cc1` [compound 532, (R)-5-(3-(4-chlorophenyl)-7-((7-fluorochroman-4-yl)carbamoyl)quinoxalin-2-yl)pentanoic acid]: the Ki ([3H]PGD2 competition, Table B) was 2.1 to 20 nM.
With `O=C(O)CCCCc1nc2cc(C(=O)N[C@H]3CCOc4ccccc43)ccc2nc1-c1ccc(Cl)cc1` [compound 507, (S)-5-(3-(4-chlorophenyl)-7-(chroman-4-ylcarbamoyl)quinoxalin-2-yl)pentanoic acid], the inhibition constant Ki is, setting by setting: ([3H]PGD2 binding, values in text) 1.3 nM; ([3H]PGD2 competition, Table B) 0.1 to 2 nM.
Under setting [1], `O=C(O)CCCCc1nc2cc(C(=O)N3CCC(c4ccccc4)CC3)ccc2nc1-c1ccc(OC(F)(F)F)cc1` [26N, 7-[(4-phenyl-1-piperidinyl)carbonyl]-3-[4-(trifluoromethoxy)phenyl]-2-quinoxalinepentanoic acid] showed a Ki of 0.1 to 2 nM.
On the same count and under the same terms, the result for `N#Cc1ccc(CNC(=O)c2ccc3nc(-c4ccccc4)c(CCCCC(=O)O)nc3c2)cc1` [15BB, 5-{7-[(4-cyanobenzyl)carbamoyl]-3-phenylquinoxalin-2-yl}pentanoic acid] reads 2.1 to 20 nM.
